Measurements reported in ChEMBL document CHEMBL6096681, “Examining Arginase-1 Trimerization Uncovers a Promising Allosteric Site for Inhibition” (J Med Chem, 2025).
Activity calls are given as the source filed them. No cut-off for these calls is given here.

Columns and labels:
[1] = molecular target: T1, Arginase-1 (Homo sapiens) (UniProt P05089); experiment: Inhibition of full length N-terminal his6-tagged human ARG-1 expressed in Escherichia coli BL21 (DE3) cells upto 20 mM incubated for 24 hrs by coomassie blue staining based SDS/PAGE analysis
T1 sequence (whole entry): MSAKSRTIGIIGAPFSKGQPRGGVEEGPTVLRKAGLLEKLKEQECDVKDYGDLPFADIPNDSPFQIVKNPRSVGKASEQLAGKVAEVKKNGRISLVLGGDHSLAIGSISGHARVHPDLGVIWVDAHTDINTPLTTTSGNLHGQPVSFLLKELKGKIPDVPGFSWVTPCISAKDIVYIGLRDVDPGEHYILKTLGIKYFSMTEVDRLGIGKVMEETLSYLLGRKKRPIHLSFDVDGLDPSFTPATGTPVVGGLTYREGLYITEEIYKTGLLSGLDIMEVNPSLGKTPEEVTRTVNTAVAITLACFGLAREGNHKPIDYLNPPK

[2] = molecular target: T1, Arginase-1 (Homo sapiens); experiment: Inhibition of N-terminal his6-tagged truncated human ARG-1 expressed in Escherichia coli BL21 (DE3) cells at 10 mM incubated for 24 hrs
[3] = molecular target: T1, Arginase-1 (Homo sapiens); experiment: Inhibition of full length N-terminal his6-tagged human ARG-1 expressed in Escherichia coli BL21 (DE3) cells at 10 mM incubated for 24 hrs relative to control
[4] = molecular target: T1, Arginase-1 (Homo sapiens); experiment: Binding affinity to N-terminal his6-tagged truncated human ARG-1 expressed in Escherichia coli BL21 (DE3) cells assessed as thermal stabilization at 20 mM measured for 24 hrs by nanoDSF analysis
Homo sapiens = organism: Homo sapiens; experiment: Inhibition of full length N-terminal his6-tagged human ARG-1 R205A mutant expressed in Escherichia coli BL21 (DE3) cells by mass spectrometry analysis
[5] = molecular target: T1, Arginase-1 (Homo sapiens); experiment: Binding affinity to full length N-terminal his6-tagged human ARG-1 expressed in Escherichia coli BL21 (DE3) cells assessed as thermal stabilization at 0.625 to 20 mM measured for 24 hrs by nanoDSF analysis; details: dose 0.625-20 mM

inhibition [1]: Active | inhibition [2]: Active | inhibition [3]: 30% | Activity [4]: Active | Activity [5]: Active
Structure (SMILES): O=CC(=O)c1ccccc1
inhibition (Homo sapiens): Active
